“Also recorded” adds a separate entry of the source.
What was measured:
SERT [1] = target: T1, SERT (Rattus norvegicus (Rat), UniProt P31652); assay: In vitro rat synaptosome serotonin release (efflux) assay (Examples 9, 58); type: biochemical; conditions: rat synaptosomes
Source text: (§1) FIG. 7B is a graph showing results from an in vitro rat synaptosome serotonin release assay. […] Details and procedural information for this assay are described in Example 9. The x-axis is the log [dose] concentration measured in molar and the y-axis is the [^3H]-labeled 5-HT release measured in percent.
as §1, with “177” for “7B”, “58.” for “9.”, “x-axis” for “x-axis is”

NET = assay: In vitro rat synaptosome norepinephrine release assay (Examples 9, 58); type: biochemical; conditions: rat synaptosomes
Source text: as §1, with “8C” for “7B”, “from” for “from an”, “synaptosome dopamine and norepinephrine release assays. […] Previously presented” for “synaptosome”, “results are included for comparison.” for “release assay.”
(§2) FIG. 178 is a graph showing results from in vitro rat synaptosome dopamine and norepinephrine release assays. […] Previously presented serotonin results are included for comparison. […] Details and procedural information for this assay are described in Example 58. The x-axis the log [dose] concentration measured in Molar units and the y-axis is the [^3H]-labeled 5-HT release measured in percent of maximum produced by the comparison releaser.

5-HT2A receptor = 5-HT2A receptor (Homo sapiens (Human), UniProt P28223); assay: 5-HT2A agonist activity (Example 6); type: cell-based
[2] = target: hTAAR1 (human trace amine-associated receptor) (Homo sapiens (Human), UniProt Q96RJ0); assay: Interaction with hTAAR1; conditions: concentrations up to 60 μM
[3] = Marble burying assay (Example 5); type: in vivo; conditions: individual enantiomers vs the racemic mixture
Source text: FIG. 2 is a chart showing results from the marble burying assay to measure decreased anxiety and neuroticism resulting from treatment with S-5-MAPB, R/S-5-MAPB, and R-5-MAPB. […] The y-axis gives the compound and dose. Error bars indicate 95% confidence intervals. Details and procedural information for this assay are described in Example 5.

Swiss CD1 mice = assay: Marble burying test; type: in vivo; conditions: enantiomers given simultaneously
SERT [4] = target: T1, SERT; assay: In vitro rat synaptosome serotonin uptake inhibition assay (Examples 9, 58); type: biochemical; conditions: rat synaptosomes
Source text: as §1, with “FIG. 7A” for “FIG. 7B”, “serotonin uptake inhibition” for “serotonin release”, “5-HT reuptake” for “5-HT release”
FIG. 176 is a graph showing results from an in vitro rat synaptosome serotonin uptake inhibition assay. […] Details and procedural information for this assay are described in Example 58. The x-axis the log [dose] concentration is measured in Molar units and the y-axis is the [^3H]-labeled 5-HT reuptake measured in percent of maximum produced by the comparison releaser.

DAT = DAT (Rattus norvegicus (Rat), UniProt P23977); assay: In vitro rat synaptosome dopamine release assay (Examples 9, 58); type: biochemical; conditions: rat synaptosomes
Source text: as §1, with “8C” for “7B”, “from” for “from an”, “synaptosome dopamine and norepinephrine release assays. […] Previously presented” for “synaptosome”, “results are included for comparison.” for “release assay.”
as §2

[5] = target: human 5-HT transporter (hSERT) (Homo sapiens (Human), UniProt P31645); assay: Human serotonin transporter  assay ([3H]imipramine radioligand, CHO cells); type: binding; conditions: 2 nM [3H]imipramine, CHO cells; read-out: SERT IC50
Experimental: EXAMPLE 8: Human Serotonin Transporter (SERT, SLC6A4) Functional Antagonist Uptake Assay
Benzofuran derivatives were evaluated for inhibiting the human 5-HT transporter (hSERT) as expressed in CHO cells using an antagonist radioligand assay (Tatsumi, M. et al. (1999), Eur. J. Pharmacol., 368: 277-283). […] Test compounds were assayed in three trials at […], and 0.94868 μM.
EXAMPLE 57: Human Serotonin Transporter (SERT, SLC6A4) Functional Antagonist Uptake Assay

[6] = target: dopamine transporter (DAT) (Rattus norvegicus (Rat), UniProt P23977); assay: Rat synaptosome DAT release assay ([3H]MPP+); conditions: read-out: dopamine Emax (maximum dopamine increase relative to reference drug)
[7] = test system: norepinephrine transporter (NET); assay: Rat synaptosome NET release assay ([3H]MPP+); conditions: rat synaptosomes
MDCKII cell line = assay: In vitro absorption assay, MDCKII permeability; type: in vitro ADME; conditions: pH 7.4/7.4, 10 μM
Experimental: (§3) The permeability of 10 μM RS-5-MAPB in Caco-2, MDCKII, and MDR1-MDCKII cell line assays was assessed (Table 6). Both the AB and BA directions with and without the addition of a Pgp-specific inhibitor (verapamil), a MRP1 inhibitor (MK571), and an ATP-binding cassette subfamily G member 2 (ABCG2/BCRP) inhibitor (KG143) were measured. Trials were repeated twice, and values averaged.

MDR1-MDCKII cell line = assay: In vitro absorption assay, MDR1-MDCKII permeability; type: in vitro ADME
Experimental: as §3

Caco-2 cell line = assay: In vitro absorption assay, Caco-2 permeability; type: in vitro ADME
Experimental: as §3

[8] = Human self-reported effects of non-racemic 5-MAPB (Good, Bad, Open ratings); type: in vivo; conditions: one healthy human, 54 mg total 5-MAPB HCl oral in two halves 1 hour apart; session maximum averaged (N=2, 13% S N=1)
Experimental: The effects of non-racemic 5-MAPB HCl were tested by a healthy human individual at four different ratios of enantiomers plus the racemate as a control: • 54 mg S and 0 mg R (100% S) • 47 mg S and 7 mg R (about 87% S) • 36 mg S and 18 mg R (about 67% S) • 27 mg S and 27 mg R (about 50% S) • 7 mg S and 47 mg R (about 13% S)
Two trials were carried out at each ratio, except for 13% S where only one was conducted. Trials were at least 72 h apart.
5-MAPB HCl was dissolved in 1.5 ml distilled water and consumed in two halves, separated by 1 hour. Starting at 3 hours after administration, tablets of 250 mg ascorbic acid and capsules of 300 mg alpha lipoic acid were taken ad libitum (approximately every hour for a total of 4 administrations).
Measurements were made approximately every 2 hours until post 6 hours and the maximum ratings per session were analyzed. Additionally, an index of good drug effects versus emotional openness, calculated as (Open−Good)/(200, the theoretical maximum of Open+ Good), was constructed at each time point and the maximum analyzed. In healthy volunteers, Good Ratings can be considered a predictor of abuse liability. Accordingly, this index can be used as an indicator of the balance of a therapeutic effect (emotional openness) vs abuse liability.
Historic data of two trials 50 mg RS-5-MAPB Cl from the same individual were also included in the analysis for comparison.
Table 24 below indicates maximums for individual measures and for the open vs good index, averaged from all sessions (N=2, except for 13% S-5-MAPB where N=1). Qualitatively, all conditions produced subtle emotional effects, including decreases in negative affect and increases in stability of mood, without sensory distortion.

human DAT = human DAT (Homo sapiens (Human), UniProt Q01959); assay: hDAT release assay in CHO cells ([3H]dopamine); conditions: read-out: EC50 DAT (Mean ± SEM), CHO cells expressing hDAT
human SERT = human SERT (Homo sapiens (Human), UniProt P31645); assay: hSERT release assay in CHO cells ([3H]serotonin); conditions: read-out: EC50 SERT (Mean ± SEM), CHO cells expressing hSERT
[9] = Caco-2, pH 7.4/7.4 + KO143, 10 μM
[10] = Caco-2, pH 7.4/7.4 + verapamil, 10 μM

For CCC(Cc1ccc2ccoc2c1)NC (racemic) [Pattern 6-MBPB, 6-MBPB], which “[3H]-labeled 5-HT release” value (SERT [1]) is on record?
Its value is 5-HT releaser.

And the norepinephrine release (NET)?
The norepinephrine release was “only partial releaser of norepinephrine”.

And the 5-HT2A agonist activity (5-HT2A receptor)?
The 5-HT2A agonist activity was “poor agonist of 5-HT2A”.

And the “interactions with hTAAR1” value [2]?
The value was “lacks interactions with hTAAR1”.

What does the source list for CNC(C)Cc1ccc2occc2c1 (centres unmarked) [Pattern 5-MAPB, 5-MAPB]?
anxiolytic effect, percent of marbles left unburied versus placebo [3]: non-additive effects of the two enantiomers; marble burying: interaction between enantiomers (Swiss CD1 mice): strong non-additive interaction

What does the source list for CC[C@H](Cc1ccc2occc2c1)NC [Pattern R-5-MBPB, R-5-MBPB]?
[3H]-labeled 5-HT reuptake (serotonin uptake inhibition) (SERT [4]): rapidly increases extracellular serotonin by inhibiting reuptake; [3H]-labeled 5-HT release (SERT [1]): rapidly increases extracellular serotonin by stimulating release; dopamine release / dopamine uptake (DAT): reuptake inhibitors of dopamine; also recorded: dopamine uptake inhibitors; norepinephrine release (NET): partial releasers of norepinephrine; also recorded: rapidly increases extracellular norepinephrine by stimulating release; IC50 [5]: < 950 nM; Emax [6]: ~25%; norepinephrine Emax [7]: 58%

With CC[C@@H](Cc1ccc2occc2c1)NC [Pattern S-5-MBPB, S-5-MBPB] as the compound, how does the “[3H]-labeled 5-HT reuptake (serotonin uptake inhibition)” value (SERT [4]) read?
The value was “rapidly increases extracellular serotonin by inhibiting reuptake”.

And the “[3H]-labeled 5-HT release” value (SERT [1])?
Its value is “rapidly increases extracellular serotonin by stimulating release”.

And the norepinephrine release (NET)?
The norepinephrine release was “rapidly increases extracellular norepinephrine by stimulating release”.

What about the IC50 [5] of the same compound?
The IC50 was under 950 nM.

Which “Permeability (Papp) A-B” value (MDCKII cell line) does the source give for CNC(C)Cc1ccc2occc2c1 (centres unmarked) [RS-5-MAPB] here?
Its value is 82.1 10^−6 cm/s.

And the “Permeability (Papp) B-A” value (MDCKII cell line)?
Its value is 19.8 10^−6 cm/s.

And the “Permeability (Papp) A-B” value (MDR1-MDCKII cell line; pH 7.4/7.4 + verapamil, 10 μM)?
Its value is 42.8 10^−6 cm/s.

And the “Permeability (Papp) B-A” value (MDR1-MDCKII cell line; pH 7.4/7.4 + verapamil, 10 μM)?
The value was 30.4 10^−6 cm/s.

And the “Permeability (Papp) A-B” value (MDR1-MDCKII cell line; pH 7.4/7.4, 10 μM)?
The value was 68.7 10^−6 cm/s.

What about the “Permeability (Papp) B-A” value (MDR1-MDCKII cell line; pH 7.4/7.4, 10 μM) of the same compound?
The value was 20.5 10^−6 cm/s.

And the “absorption (conclusion of the permeability assays)” value (Caco-2 cell line; Caco-2, MDCKII and MDR1-MDCKII assays taken together)?
Its value is “well absorbed”.

What about the “Permeability (Papp) A-B” value (Caco-2 cell line; [9]) of the same compound?
Its value is 75.3 10^−6 cm/s.

What about the “Permeability (Papp) B-A” value (Caco-2 cell line; [9]) of the same compound?
Its value is 14 10^−6 cm/s.

What about the “Permeability (Papp) A-B” value (Caco-2 cell line; [10]) of the same compound?
The value was 37.6 10^−6 cm/s.

What about the “Permeability (Papp) B-A” value (Caco-2 cell line; [10]) of the same compound?
Its value is 23 10^−6 cm/s.

What about the “Permeability (Papp) A-B” value (Caco-2 cell line; Caco-2, pH 7.4/7.4, 10 μM) of the same compound?
The value was 81 10^−6 cm/s.

And the “Permeability (Papp) B-A” value (Caco-2 cell line; Caco-2, pH 7.4/7.4, 10 μM)?
The value was 29.1 10^−6 cm/s.

What about the “Bad (bad drug effects), maximum 0-100 rating” value [8] of the same compound?
The value was 10%.

And the “Good (good drug effects), maximum 0-100 rating” value [8]?
Its value is 50%.

And the “Open (emotional openness), maximum 0-100 rating” value [8]?
The value was 45%.

What about the EC50 (human DAT) of the same compound?
The EC50 was 459 ± 48 nM.

And the EC50 (human SERT)?
Its EC50 is 90 ± 16 nM.
